US20220195455A1, “DELIVERY OF CRISPR/MCAS9 THROUGH EXTRACELLULAR VESICLES FOR GENOME EDITING” (University of Georgia Research Foundation, Inc., priority 2019, published 2022)

Legend:
full length NMT1 protein = molecular target: T1, full length NMT1 protein (Homo sapiens, UniProt P30419); experiment: NMT1 activity assay (CoA release, fluorescence); assay type: biochemical; conditions: octapeptide as NMT1 substrate;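 further: released CoA from NMT1-catalysed myristoylation of octapeptide substrates detected by fluorescence after reaction with a maleimide coumarin dye (excitation 390 nm, emission 479 nm), triplicate points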
T1 construct: Km and Vmax catalyzed by full length NMT1 protein were calculated
T1 sequence (P30419 1-496): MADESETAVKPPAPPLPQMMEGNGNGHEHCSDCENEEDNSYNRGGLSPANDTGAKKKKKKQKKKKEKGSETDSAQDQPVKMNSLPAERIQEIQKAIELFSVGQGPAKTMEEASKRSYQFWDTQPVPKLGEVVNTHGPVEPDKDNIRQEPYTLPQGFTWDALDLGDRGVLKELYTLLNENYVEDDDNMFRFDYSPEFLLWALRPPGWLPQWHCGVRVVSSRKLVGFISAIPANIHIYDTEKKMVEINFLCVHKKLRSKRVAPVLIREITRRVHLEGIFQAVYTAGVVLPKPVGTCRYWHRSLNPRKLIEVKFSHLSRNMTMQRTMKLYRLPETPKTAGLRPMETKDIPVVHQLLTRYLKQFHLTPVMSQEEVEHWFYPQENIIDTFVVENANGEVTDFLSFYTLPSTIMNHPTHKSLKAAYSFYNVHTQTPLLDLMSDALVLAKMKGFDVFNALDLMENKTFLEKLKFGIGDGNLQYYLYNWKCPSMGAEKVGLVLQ
Procedure: The amount of the released CoA were reacted with 7-diethylamino-3-(4′-maleimidylphenyl)-4-methylcoumarin. The assay was performed in 96-well black microplates. The produced fluorescence intensity was measured by Flex Station 3, and detected by microplate reader (excitation at 390 nm; emission at 479 nm).
The amount of the released CoA were reacted with 7-diethylamino-3-(4′-maleimidylphenyl)-4-methylcoumarin. The assay was performed in 96-well black microplates. The produced fluorescence intensity was measured by Flex Station 3, and detected by microplate reader (excitation at 390 nm; emission at 479 nm). To measure the Km and Vmax of NMT1 which catalyzed various octapeptides substrates derived from various proteins, twenty-five octapeptides were synthesized by GenScript. […] Each data point has three repeats.
Km and Vmax catalyzed by full length NMT1 protein were calculated.

PC3 cells = experiment: Lipid raft disruption, cholesterol staining; assay type: cell-based, human; conditions: 1 μM, 24 h
Procedure: PC3 cells were treated with vehicle control or 1 μM Filipin for 24 h. The treated cells were visualized under a fluorescence microscope. The treated cells were stained with Filipin III and representative images were taken.

PC3 or DU145 cells = experiment: Lipid raft disruption, Src kinase in EVs by immunoblotting; assay type: cell-based, human; conditions: 0-1 μM, 24 h
Procedure: PC3 and DU145 cells were grown overnight. The medium was replaced with the same growth medium but containing EVs/exosome-free FBS with DMSO (control) or Filipin III (0-1 μM) for 24 h to disrupt lipid rafts. The EVs were isolated from the conditioned medium by sequential centrifugation as described above. The isolated EVs and cells were lysed with RIPA buffer for immunoblotting analysis.

[1] = tested on: DU145, NIH 3T3, SYF1, 22Rv1 cells; experiment: Encapsulation of Src family kinase variants into EVs of transduced cells (Western blot, EVs vs TCL); assay type: cell-based; conditions: for levels of Fyn kinase in EVs: in comparison with Fyn(WT)
Procedure: The transfected cells were grown in exosome-free FBS medium and EVs were isolated from the conditioned medium. […] Ten μg of protein from EVs or TCL were loaded. Src protein levels were quantified by Image J software. […] Data were expressed as mean±SEM, ** p<0.01; *** p<0.001. […] The transduced cells were grown in EVs/exosome-free FBS medium with (Lane 4-6 and 10-12) or without (Lane 1-3 and 7-9) 50 μM myristic acid-azide (an analog of myristic acid). The myristoylated proteins from either EVs or TCL were detected using Click chemistry. Ten μg of protein from EVs or TCL were loaded.
EVs were isolated from conditioned medium by sequential ultracentrifugation. […] Ten μg of protein from EVs or TCL were loaded. […] Coomassie staining was used to show equivalent loading of samples. The Src expression level was quantified by Image J software. Data are expressed as mean±SEM, * p<0.05; ** p<0.01; *** p<0.001.
The transduced cells were grown in EVs/exosome-free medium for 24 h and EVs were isolated from the conditioned medium. Ten μg of protein from extracellular vesicles (EVs) or total cell lysates (TCL) were loaded. […] Data are expressed as mean±SEM. * p<0.05; **** p<0.0001; NS: Not significant.
The transduced cells were grown in exosome-free FBS medium. EVs were collected from the conditioned cell culture medium. Expression levels of Src in extracellular vesicles (EVs) and total cell lysates (TCL) from the transduced cells were evaluated by Western blotting. 10 μg of protein from Exo or TCL were loaded. […] The Src protein was quantified by Image J software. […] Data are expressed as mean±SEM. ** p<0.01.
To isolate EVs from the cell culture medium, the cell lines were grown in ATCC recommended medium in a 150-mm petri-dish. […] The size, zeta potential, and concentration of EVs were measured by nanoparticle tracking analysis (NTA, Particle Metrix, Germany) with ZetaView software for data record and analysis.
The total cell lysate and EVs dissolved in RIPA buffer were subjected to the standard immunoblotting analysis. […] The band intensity was quantified by Image J software.

| Compound | Km (full length NMT1 protein) [µM] | Vmax (full length NMT1 protein) [µM/min] | levels of Fyn kinase in EVs [1] | further results |
| --- | --- | --- | --- | --- |
| GQSQSGGH (SEQ ID NO: 364) [PSMC1] | 40 | 9.6 | – | – |
| CCCCC[C@@H](O)[C@H]1C(=O)O[C@H](C)[C@@H](O)/C=C/C=C/C=C/C=C/C=C(\C)[C@@H](O)C[C@H](O)C[C@H](O)C[C@H](O)C[C@H](O)C[C@H](O)C[C@@H]1O [Filipin III] | – | – | – | cholesterol levels (PC3 cells): significantly decreased; expression levels of Src kinase in EVs (PC3 or DU145 cells): did not significantly change |
| Fyn(C3S/C6S): Fyn mutant with loss of palmitoylation (GSVQSK) | – | – | significantly increased | – |
| Fyn(G2A): Fyn mutant with loss of myristoylation (ACVQCK) | – | – | significantly inhibited | – |
| Fyn(WT): wild type Fyn kinase (GCVQCK) | – | – | – | levels of kinase in EVs in comparison with total cell lysate [1]: decreased |
| GSCCSCPD (SEQ ID NO: 370) [FRS2] | 28.2 | 54.7 | – | – |
